In patent publication US10363276B2, “Compositions, methods, and devices for treating disease” (The General Hospital Corporation, priority 2006, dated 2019):

Experiments:
human MSCs = assay: IL-10 mRNA (RT-PCR) and protein (ELISA) in cytokine-treated MSCs; format: cell-based; details: IL-6 2.5 ng/ml or TNF-α 25 ng/ml, 24 hours
Protocol: MSCs were exposed to IL-1, IL-6, or tumor necrosis factor-α(TNF-α), all of which are cytokines known to be involved in liver fibrosis, for 24 hours. IL-10 protein secretion and mRNA levels were the determined by enzyme-linked-immunosorbent-assay (ELISA) and RT-PCR, respectively.
Briefly, human MSCs were treated with 2.5 ng/ml IL-6 (R&D Systems, Minneapolis, Minn.), 5 ng/ml IL-1 (R&D Systems, Minneapolis, Minn.), or 25 ng/ml TNF-α (R&D Systems, Minneapolis, Minn.) supplemented MSC expansion medium for 24 hours. MSCs cultured in expansion medium served as a negative control. After treatment, cells were harvested and analyzed for changes in gene expression.
Quantification of human IL-10 was determined using an ELISA as per vendor instructions (Endogen, Rockford, Ill.). Supernatants were sampled after 48 hours of co-culture and stored at −20° C. until analysis.
RNA was extracted from 0.1-1.0×10^6 MSCs using the NUCLEOSPIN RNA purification kit (BD Biosciences, Palo Alto, Calif.) per the manufacturer's instructions. Approximately 1 μg of total mRNA was reverse transcribed to cDNA using the ONESTEP RT-PCR Kit (Qiagen, Valencia, Calif.) per manufacturer's instructions and amplified in a Perkin Elmer-Cetus Thermal Cycler 480. Cycling conditions were: 1) 50° C. for 30 minutes; 2) 95° C. for 15 minutes; 3) 30 cycles at 94° C. for 30 seconds, 55° C. for 30 seconds, and 72° C. for 1 minute; and 4) a final extension step at 72° C. for 10 minutes. IL-10 was amplified using a combination of the sense and antisense oligonucleotides SEQ ID NO:1 and SEQ ID NO:2, respectively, to yield a 364 base pair (bp) PCR product. Glyceraldehyde 3-phosphate dehydrogenase (GAPDH) was amplified using a combination of the sense and antisense oligonucleotides SEQ ID NO:3 and SEQ ID NO:4, respectively, to yield a 238 bp PCR product.

Hepatocytes = assay: Hepatocyte colonies and urea synthesis with modulation of SDF-1a signaling; format: cell-based; details: 5 ng/ml SDF-1a or AMD3100 at 1 uM in standard culture medium
Protocol: FIG. 24 is a bar graph of Urea synthesis in hepatocytes cultured on growth-arrested NIH-3T3-J2 fibroblasts for 14 days supplemented with 5 ng/ml SDF-1a or AMD3100, a CXCR4 antagonist. Data represent mean±standard error of the mean (s.e.m.) of two independent experiments performed in triplicate.
One component of MSC-CM that may be responsible for increased hepatocyte replication is SDF-1a. Hepatocytes were proliferated using aforementioned techniques in standard culture medium alone or supplemented with 5 ng/ml SDF-1a (FIG. 29B) or the SDF-1a receptor antagonist, AMD3100 at 1 uM.

Row | hepatocyte colony size (Hepatocytes) | Molecule | IL-10 mRNA in MSCs (human MSCs) | IL-10 protein secretion into the culture medium by MSCs (human MSCs)
1 |  | TNF-α | upregulation | upregulation
2 |  | IL-6: cytokine (R&D Systems) used at 2.5 ng/ml to treat human MSCs | upregulation | upregulation
3 | smaller colonies | c1cc(CN2CCCNCCNCCCNCC2)ccc1CN1CCCNCCNCCCNCC1 [AMD3100] |  | 
